Assay results reported in PMC8427973, “Regulation of the HTRA2 Protease Activity by an Inhibitory Antibody-Derived Peptide Ligand and the Influence on HTRA2-Specific Protein Interaction Networks in Retinal Tissues” (Biomedicines, 2021).

How the values were obtained:
[1] = tested on: retinal ganglion cells (RGCs); conditions: cited from earlier work
Description: However, in a recent study of our group we identified the protein HTRA2 as a high-affinity interaction partner of the synthetic peptide […] [16]. Thereby, this synthetic peptide encodes a complementary-determining region 1 (CDR1) of polyclonal antibody molecules, which was originally identified as a potential biomarker candidate in primary-open angle glaucoma (POAG) patients.

[2] = tested on: HTRA2; conditions: immunoprecipitation experiments; cited from earlier work
Description: The mitochondrial serine protease HTRA2 has many versatile biological functions ranging from being an important regulator of apoptosis to being an essential component for neuronal cell survival and mitochondrial homeostasis. Loss of HTRA2 protease function is known to cause neurodegeneration, whereas overactivation of its proteolytic function is associated with cell death and inflammation.

[3] = tested on: recombinant 6xHis-tag HTRA2 and its protein interaction partners in homogenized porcine retina; test: Co-immunoprecipitation (Co-IP) of HTRA2 protein interaction partners, quantitative LC-MS/MS (iBAQ, volcano plot vs CTRL beads); set-up: species or system house swine (Sus scrofa); conditions: 2 µg HTRA2 + 10 µg compound, n = 3, vs CTRL beads
Description: The retina extraction and homogenization were performed as already described in previous publications. The use of animal by-products of house swine for scientific research purposes was approved by the Kreisverwaltung Mainz-Bingen in Germany (Identification Code: DE 07 315 0006 21, approved on 13 January 2014). In brief, retinal tissues were extracted from freshly removed porcine eye bulbs (house swine, Sus scrofa domestica Linnaeus, n = 30) provided by the local slaughterhouses (Landmetzgerei Harth, Stadecken-Elsheim, Germany). Afterwards, the retinal tissues were homogenized in 2 mL screw cap microtubes filled with 1.4/2.8 mm ceramic beads and 1 mL Tissue Protein Extraction Reagent (T-PER, Thermo Fisher Scientific, Rockford, IL, USA) using a Percellys® 24 homogenizer (VWR International GmbH, Darmstadt, Germany). The homogenized retinal samples were then centrifuged at 14,000× g for 15 min at 4 °C. The protein-containing supernatant was exchanged in a 100 µL phosphate-buffered saline (PBS) using a 3 kDa Amicon® filtration unit (Millipore, Billerica, MA, USA) and, prior to this, was extensively washed in order to completely remove traces of the T-PER buffer. Afterwards, the samples were pooled and the protein concentration was determined using a Pierce Bicinchoninic Acid (BCA) Protein Assay Kit (Thermo Fisher Scientific, Rockford, IL, USA) according to the manufacturer’s protocol, which provided 5 mg aliquots for further analysis.
The recombinant protein HTRA2 with a C-terminal 6xHis-tag motif (Novoprotein Scientific INC., Summit, NJ, USA) and 40 μL HisPurTM Ni-NTA magnetic beads (Thermo Fisher Scientific, Rockford, IL, USA) were spiked into 5 mg homogenized porcine retina. The experiment comprised of four groups: control homogenate (CTRL group), homogenate with 2 μg recombinant HTRA2 (HTRA2 group), homogenate with 2 μg recombinant HTRA2 and 10 μg UCF-101 (UCF-101 group), and homogenate with 2 μg recombinant HTRA2 and 10 μg synthetic CDR peptide (CDR group). The Co-IP of the recombinant HTRA2 and the enrichment of the respective interaction partners was performed with three independent biological replicates for each group (CTRL, HTRA2, UCF-101, and CDR group). After incubation at 4 °C overnight, the 6xHis-tagged protein HTRA2 with the bounded protein interaction partners (co-immunoprecipitation) was isolated with the previously added HisPurTM Ni-NTA magnetic beads (Thermo Fisher Scientific, Rockford, IL, USA) using a magnetic stand. Each bead group was washed twice with 400 μL PBS and the bounded HTRA2 including the protein interaction partners were eluted by pH shift. The protein concentration of each eluate fraction was determined as described above. Afterwards, 50 μg of each eluate fraction was evaporated using a speed vacuum concentrator (SpeedVac) (Eppendorf, Hamburg, Germany) for 45 min at 30 °C and was stored afterwards at −20 °C.
The protein eluate fractions of each group (50 μg; n = 3 biological replicates per group) were separated by 1D SDS PAGE on 10-well NuPAGE® 12% Bis-Tris gels using NuPAGE™ MOPS SDS Running Buffer 20X (Thermo Fisher Scientific, Rockford, IL, USA). The 1D SDS PAGE was performed with the XCell SureLock^TM Mini-Cell Electrophoresis System (Thermo Fisher Scientific, Rockford, IL, USA) under denatured and reduced conditions, as already described in previous publications. The protein separation was performed for 2 h at 4 °C using 150 V, and then the gels were stained with the Novex Colloidal Blue Staining Kit (Thermo Fisher Scientific, Rockford, IL, USA) according to the manufacturer’s protocol. The next day, the gels were destained overnight and scanned using a DGP-9042 scanner (Brother Industries, Nagoya, Japan) at 600 dpi. In-gel trypsin digestion was performed as already described in previous publications. In brief, each protein lane was divided into 17 slices and was subsequently cut into small pieces. […]

ASGYTFTNYGLSWVR [CDR, synthetic peptide encoding a complementary-determining region 1 (CDR1) of polyclonal antibody molecules]
Effect on retinal ganglion cells (RGCs) in an organ culture model for glaucoma [1]: neuroprotective effects | Affinity for the target protein HTRA2 [2]: high affinity | FGF2 (Fibroblast growth factor 2) as significant interaction partner of HTRA2 ([3]; HTRA2 alone: -): √ (Proteins fulfilled filtering criteria (p < 0.01; log2 fold change > 1.5)) | FTH1 (Ferritin heavy chain) as significant interaction partner of HTRA2 ([3]; HTRA2 alone: -): √ (Proteins fulfilled filtering criteria (p < 0.01; log2 fold change > 1.5)) | GTF2F2 (General transcription factor IIF subunit 2) as significant interaction partner of HTRA2 ([3]; HTRA2 alone: -): - (Proteins failed to fulfill the filtering criteria (p > 0.01; log2 fold change < 1.5)) | NAPG (Gamma-soluble NSF attachment protein) as significant interaction partner of HTRA2 ([3]; HTRA2 alone: -): √ (Proteins fulfilled filtering criteria (p < 0.01; log2 fold change > 1.5)) | PDZD11 (PDZ domain-containing protein 11) as significant interaction partner of HTRA2 ([3]; HTRA2 alone: -): √ (Proteins fulfilled filtering criteria (p < 0.01; log2 fold change > 1.5)) | PGRMC1 (Membrane-associated progesterone receptor component 1) as significant interaction partner of HTRA2 ([3]; HTRA2 alone: -): - (Proteins failed to fulfill the filtering criteria (p > 0.01; log2 fold change < 1.5)) | PLRG1 (Pleiotropic regulator 1) as significant interaction partner of HTRA2 ([3]; HTRA2 alone: -): √ (Proteins fulfilled filtering criteria (p < 0.01; log2 fold change > 1.5)) | POLR2E (DNA-directed RNA polymerases I, II, and III subunit RPABC1) as significant interaction partner of HTRA2 ([3]; HTRA2 alone: -): √ (Proteins fulfilled filtering criteria (p < 0.01; log2 fold change > 1.5)) | PPA1 (Inorganic pyrophosphatase) as significant interaction partner of HTRA2 ([3]; HTRA2 alone: -): - (Proteins failed to fulfill the filtering criteria (p > 0.01; log2 fold change < 1.5)) | SFRP1 (Secreted frizzled-related protein 1) as significant interaction partner of HTRA2 ([3]; HTRA2 alone: -): √ (Proteins fulfilled filtering criteria (p < 0.01; log2 fold change > 1.5)) | TUBA1C (Tubulin alpha-1C chain) as significant interaction partner of HTRA2 ([3]; HTRA2 alone: -): √ (Proteins fulfilled filtering criteria (p < 0.01; log2 fold change > 1.5)) | UBE2N (Ubiquitin-conjugating enzyme E2 N) as significant interaction partner of HTRA2 ([3]; HTRA2 alone: -): √ (Proteins fulfilled filtering criteria (p < 0.01; log2 fold change > 1.5)) | CDC42 (Cell division control protein 42 homolog) as significant interaction partner of HTRA2 ([3]; HTRA2 alone: n.d.): √ (Proteins fulfilled filtering criteria (p < 0.01; log2 fold change > 1.5)) | COPE (Coatomer subunit epsilon) as significant interaction partner of HTRA2 ([3]; HTRA2 alone: n.d.): - (Proteins failed to fulfill the filtering criteria (p > 0.01; log2 fold change < 1.5)) | MRPL2 (39S ribosomal protein L2, mitochondrial) as significant interaction partner of HTRA2 ([3]; HTRA2 alone: n.d.): √ (Proteins fulfilled filtering criteria (p < 0.01; log2 fold change > 1.5)) | SNX3 (Sorting nexin-3) as significant interaction partner of HTRA2 ([3]; HTRA2 alone: n.d.): √ (Proteins fulfilled filtering criteria (p < 0.01; log2 fold change > 1.5)) | SOWAHA (Ankyrin repeat domain-containing protein SOWAHA) as significant interaction partner of HTRA2 ([3]; HTRA2 alone: n.d.): √ (Proteins fulfilled filtering criteria (p < 0.01; log2 fold change > 1.5)) | TIMM13 (Mitochondrial import inner membrane translocase subunit Tim13) as significant interaction partner of HTRA2 ([3]; HTRA2 alone: n.d.): √ (Proteins fulfilled filtering criteria (p < 0.01; log2 fold change > 1.5)) | TUBB8 (Tubulin beta-8 chain) as significant interaction partner of HTRA2 ([3]; HTRA2 alone: n.d.): √ (Proteins fulfilled filtering criteria (p < 0.01; log2 fold change > 1.5)) | AGPS (Alkyldihydroxyacetonephosphate synthase, peroxisomal) as significant interaction partner of HTRA2 ([3]; HTRA2 alone: √): √ (Proteins fulfilled filtering criteria (p < 0.01; log2 fold change > 1.5)) | ANK2 (Ankyrin-2) as significant interaction partner of HTRA2 ([3]; HTRA2 alone: √): - (Proteins failed to fulfill the filtering criteria (p > 0.01; log2 fold change < 1.5)) | AP2A1 (AP-2 complex subunit alpha-1) as significant interaction partner of HTRA2 ([3]; HTRA2 alone: √): - (Proteins failed to fulfill the filtering criteria (p > 0.01; log2 fold change < 1.5)) | AP3D1 (AP-3 complex subunit delta-1) as significant interaction partner of HTRA2 ([3]; HTRA2 alone: √): - (Proteins failed to fulfill the filtering criteria (p > 0.01; log2 fold change < 1.5)) | AUH (Methylglutaconyl-CoA hydratase, mitochondrial) as significant interaction partner of HTRA2 ([3]; HTRA2 alone: √): √ (Proteins fulfilled filtering criteria (p < 0.01; log2 fold change > 1.5)) | CS (Citrate synthase, mitochondrial) as significant interaction partner of HTRA2 ([3]; HTRA2 alone: √): - (Proteins failed to fulfill the filtering criteria (p > 0.01; log2 fold change < 1.5)) | CSTB (Cystatin-B) as significant interaction partner of HTRA2 ([3]; HTRA2 alone: √): √ (Proteins fulfilled filtering criteria (p < 0.01; log2 fold change > 1.5)) | DNAJA3 (DnaJ homolog subfamily A member 3, mitochondrial) as significant interaction partner of HTRA2 ([3]; HTRA2 alone: √): - (Proteins failed to fulfill the filtering criteria (p > 0.01; log2 fold change < 1.5)) | DTD1 (D-aminoacyl-tRNA deacylase 1) as significant interaction partner of HTRA2 ([3]; HTRA2 alone: √): - (Proteins failed to fulfill the filtering criteria (p > 0.01; log2 fold change < 1.5)) | EIF2S3 (Eukaryotic translation initiation factor 2 subunit 3) as significant interaction partner of HTRA2 ([3]; HTRA2 alone: √): - (Proteins failed to fulfill the filtering criteria (p > 0.01; log2 fold change < 1.5)) | FAM30A (Putative uncharacterized protein FAM30A) as significant interaction partner of HTRA2 ([3]; HTRA2 alone: √): - (Proteins failed to fulfill the filtering criteria (p > 0.01; log2 fold change < 1.5)) | FLNA (Filamin-A) as significant interaction partner of HTRA2 ([3]; HTRA2 alone: √): - (Proteins failed to fulfill the filtering criteria (p > 0.01; log2 fold change < 1.5)) | GDI1 (Rab GDP dissociation inhibitor alpha) as significant interaction partner of HTRA2 ([3]; HTRA2 alone: √): √ (Proteins fulfilled filtering criteria (p < 0.01; log2 fold change > 1.5)) | GLO1 (Lactoylglutathione lyase) as significant interaction partner of HTRA2 ([3]; HTRA2 alone: √): √ (Proteins fulfilled filtering criteria (p < 0.01; log2 fold change > 1.5)) | GNL1 (Guanine nucleotide-binding protein-like 1) as significant interaction partner of HTRA2 ([3]; HTRA2 alone: √): - (Proteins failed to fulfill the filtering criteria (p > 0.01; log2 fold change < 1.5)) | HAGH (Hydroxyacylglutathione hydrolase, mitochondrial) as significant interaction partner of HTRA2 ([3]; HTRA2 alone: √): - (Proteins failed to fulfill the filtering criteria (p > 0.01; log2 fold change < 1.5)) | HTRA2 (Serine protease HTRA2, mitochondrial; target protein) enriched ([3]; HTRA2 alone: √): √ (Proteins fulfilled filtering criteria (p < 0.01; log2 fold change > 1.5)) | HYOU1 (Hypoxia up-regulated protein 1) as significant interaction partner of HTRA2 ([3]; HTRA2 alone: √): - (Proteins failed to fulfill the filtering criteria (p > 0.01; log2 fold change < 1.5)) | MCTS1 (Malignant T-cell-amplified sequence 1) as significant interaction partner of HTRA2 ([3]; HTRA2 alone: √): √ (Proteins fulfilled filtering criteria (p < 0.01; log2 fold change > 1.5)) | ME2 (NAD-dependent malic enzyme, mitochondrial) as significant interaction partner of HTRA2 ([3]; HTRA2 alone: √): - (Proteins failed to fulfill the filtering criteria (p > 0.01; log2 fold change < 1.5)) | NCKAP1 (Nck-associated protein 1) as significant interaction partner of HTRA2 ([3]; HTRA2 alone: √): - (Proteins failed to fulfill the filtering criteria (p > 0.01; log2 fold change < 1.5)) | PACS1 (Phosphofurin acidic cluster sorting protein 1) as significant interaction partner of HTRA2 ([3]; HTRA2 alone: √): - (Proteins failed to fulfill the filtering criteria (p > 0.01; log2 fold change < 1.5)) | POTEE (POTE ankyrin domain family member E) as significant interaction partner of HTRA2 ([3]; HTRA2 alone: √): - (Proteins failed to fulfill the filtering criteria (p > 0.01; log2 fold change < 1.5)) | PSMC1 (26S proteasome regulatory subunit 4) as significant interaction partner of HTRA2 ([3]; HTRA2 alone: √): - (Proteins failed to fulfill the filtering criteria (p > 0.01; log2 fold change < 1.5)) | PTGES3 (Prostaglandin E synthase 3) as significant interaction partner of HTRA2 ([3]; HTRA2 alone: √): √ (Proteins fulfilled filtering criteria (p < 0.01; log2 fold change > 1.5)) | RPS12 (40S ribosomal protein S12) as significant interaction partner of HTRA2 ([3]; HTRA2 alone: √): - (Proteins failed to fulfill the filtering criteria (p > 0.01; log2 fold change < 1.5)) | SPTBN1 (Spectrin beta chain, non-erythrocytic 1) as significant interaction partner of HTRA2 ([3]; HTRA2 alone: √): - (Proteins failed to fulfill the filtering criteria (p > 0.01; log2 fold change < 1.5)) | UBE2V1 (Ubiquitin-conjugating enzyme E2 variant 1) as significant interaction partner of HTRA2 ([3]; HTRA2 alone: √): √ (Proteins fulfilled filtering criteria (p < 0.01; log2 fold change > 1.5))
